Assay results reported in US20230293644A1, “ANTI-INFLAMMATORY PEPTIDES AND COMPOSITION COMPRISING THE SAME” (Gemvax & KAEL Co., Ltd., priority 2012, published 2023).

Test system: TNF-α
Assay: Screening of TNF-α inhibitory effect, LPS-stimulated PBMC-derived monocytes (Example 2)
Format: cell-based, human
Details: 4 uM peptide, 2 hrs, LPS 10 ng/ml; for TNF-α inhibiting effect compared to the group treated with LPS and estrogen: estrogen 20 nM
Procedure: PBMC (peripheral blood mononuclear cells) layer was separated from blood samples (50 ml) collected in healthy subjects using Biocoll Separating Solution (Biochrom AG, Berlin, Germany). The collected PBMC were enriched in RPMI 1640 medium containing 20% human serum for 30 mins, and then transferred to 100-mm polystyeren cell culture plate coated with human serum for incubation for 2 hrs at 37° C., 5% CO^2 incubator. Monocytes were detached from the bottom of the plate using cold PBS, and incubated to reach the number of 1 × 10^5 cell/well in 96-well plate with RPMI 1640 medium (supplemented with penicillinstreptomycin; […], human serum; 20%) over night.
ELISA was performed to find out how the peptides of the PEP RIA series influence TNF-α level. PBMC-derived monocytes were incubated to reach the number of 1 × 10^5 cells per well in a 96-well plate and then treated with LPS (lipopolysaccharide; 10 ng/ml, Sigma) for 2 hours. To the monocytes that were washed three times with PBS, OPTI-MEM culture medium was added to induce cell starvation for an hour, 4 µM of the peptide was taken out and incubated for 2 hours. There were three negative control groups. The first group was not treated with anything. The second group that was treated with estrogen (in this experiment, estradiol was used as a kind of estrogen). The third group was treated with LPS (10 ng/ml) or with LPS (10 ng/ml) as well as estrogen (20 nM). PEP1 that was confirmed to have TNF-α inhibiting activity was used as a positive control to measure TNF-α inhibiting activity. After incubation, TNF-α was measured by following the ELISA kit manual (R&D, Minneapolis, MN, USA). The details of quantification method can be found in Experiment 2.2 of Example 1.
Using the method stated above, Peptides with TNF-α inhibiting effect were screened. PBMC-derived monocytes were stimulated with LPS (10 ng/ml), which is endotoxin, for 2 hours and were induced to starve by adding OPTI-MEM for 1 hour. After that, 4 uM of 179 peptides were treated and incubated for 2 hrs. The amount of TNF-α in the cell culture medium was measured using ELISA, and the peptides with TNF-α inhibiting effect were screened by comparing to the negative and positive controls (FIG. 3 to FIG. 23).

| Substance | TNF-α inhibiting effect compared to the control group treated with only LPS | TNF-α inhibiting effect compared to the group treated with LPS and estrogen |
| --- | --- | --- |
| AEVRQHREARPALLTSRLRFIPKPDG (listed as Homo sapiens) [SEQ ID NO: 54] | showed TNF-α inhibiting effect | showed TNF-α inhibiting effect |
| AEVRQHREARPALLTSRLRFIPKPDGL (listed as Homo sapiens) [SEQ ID NO: 55] | showed TNF-α inhibiting effect | showed TNF-α inhibiting effect |
| AEVRQHREARPALLTSRLRFIPKPDGLR (listed as Homo sapiens) [SEQ ID NO: 56] | showed TNF-α inhibiting effect | showed TNF-α inhibiting effect |
| AEVRQHREARPALLTSRLRFIPKPDGLRP (listed as Homo sapiens) [SEQ ID NO: 57] | showed TNF-α inhibiting effect | – |
| AEVRQHREARPALLTSRLRFIPKPDGLRPI (listed as Homo sapiens) [SEQ ID NO: 58] | showed TNF-α inhibiting effect | – |
| ALLTSR (listed as Homo sapiens) [SEQ ID NO: 142] | showed TNF-α inhibiting effect | – |
| ALLTSRL (listed as Homo sapiens) [SEQ ID NO: 141] | showed TNF-α inhibiting effect | – |
| ALLTSRLRF (listed as Homo sapiens) [SEQ ID NO: 140] | showed TNF-α inhibiting effect | showed TNF-α inhibiting effect |
| ARPA (listed as Homo sapiens) [SEQ ID NO: 119] | showed TNF-α inhibiting effect | – |
| ARPAL (listed as Homo sapiens) [SEQ ID NO: 118] | showed TNF-α inhibiting effect | – |
| ARPALL (listed as Homo sapiens) [SEQ ID NO: 117] | showed TNF-α inhibiting effect | showed TNF-α inhibiting effect |
| ARPALLT (listed as Homo sapiens) [SEQ ID NO: 116] | showed TNF-α inhibiting effect | showed TNF-α inhibiting effect |
| ARPALLTSRLRF (listed as Homo sapiens) [SEQ ID NO: 111] | showed TNF-α inhibiting effect | – |
| ARPALLTSRLRFI (listed as Homo sapiens) [SEQ ID NO: 110] | showed TNF-α inhibiting effect | showed TNF-α inhibiting effect |
| ARPALLTSRLRFIP (listed as Homo sapiens) [SEQ ID NO: 104] | showed TNF-α inhibiting effect | – |
| ARPALLTSRLRFIPK (listed as Homo sapiens) [SEQ ID NO: 91] | showed TNF-α inhibiting effect | showed TNF-α inhibiting effect |
| EAEVRQHREARPALLTSRLRFIPK (listed as Homo sapiens) [SEQ ID NO: 9] | showed TNF-α inhibiting effect | showed TNF-α inhibiting effect |
| EAR [SEQ ID NO: 90] | showed TNF-α inhibiting effect | showed TNF-α inhibiting effect |
| EARP (listed as Homo sapiens) [SEQ ID NO: 89] | showed TNF-α inhibiting effect | showed TNF-α inhibiting effect |
| EARPA (listed as Homo sapiens) [SEQ ID NO: 88] | showed TNF-α inhibiting effect | showed TNF-α inhibiting effect |

| Substance | TNF-α inhibiting effect compared to the control group treated with only LPS | TNF-α inhibiting effect compared to the group treated with LPS and estrogen |
| --- | --- | --- |
| EARPALLTS (listed as Homo sapiens) [SEQ ID NO: 84] | showed TNF-α inhibiting effect | – |
| EARPALLTSR (listed as Homo sapiens) [SEQ ID NO: 83] | showed TNF-α inhibiting effect | showed TNF-α inhibiting effect |
| EARPALLTSRL (listed as Homo sapiens) [SEQ ID NO: 82] | showed TNF-α inhibiting effect | showed TNF-α inhibiting effect |
| EARPALLTSRLR (listed as Homo sapiens) [SEQ ID NO: 81] | showed TNF-α inhibiting effect | showed TNF-α inhibiting effect |
| EARPALLTSRLRF (listed as Homo sapiens) [SEQ ID NO: 80] | showed TNF-α inhibiting effect | showed TNF-α inhibiting effect |
| EARPALLTSRLRFIPKP (listed as Homo sapiens) [SEQ ID NO: 65] | showed TNF-α inhibiting effect | showed TNF-α inhibiting effect |
| EARPALLTSRLRFIPKPD (listed as Homo sapiens) [SEQ ID NO: 66] | showed TNF-α inhibiting effect | – |
| EARPALLTSRLRFIPKPDGLRPI (listed as Homo sapiens) [SEQ ID NO: 70] | showed TNF-α inhibiting effect | showed TNF-α inhibiting effect |
| EARPALLTSRLRFIPKPDGLRPIV (listed as Homo sapiens) [SEQ ID NO: 71] | showed TNF-α inhibiting effect | showed TNF-α inhibiting effect |
| EARPALLTSRLRFIPKPDGLRPIVN (listed as Homo sapiens) [SEQ ID NO: 72] | showed TNF-α inhibiting effect | showed TNF-α inhibiting effect |
| EARPALLTSRLRFIPKPDGLRPIVNMD (listed as Homo sapiens) [SEQ ID NO: 74] | showed TNF-α inhibiting effect | – |
| ELSEAEVRQHREARPALLTSRLRFIPK (listed as Homo sapiens) [SEQ ID NO: 12] | showed TNF-α inhibiting effect | – |
| EVRQHREARPALLTSRLRFIPKPD (listed as Homo sapiens) [SEQ ID NO: 42] | showed TNF-α inhibiting effect | showed TNF-α inhibiting effect |
| EVRQHREARPALLTSRLRFIPKPDG (listed as Homo sapiens) [SEQ ID NO: 43] | showed TNF-α inhibiting effect | showed TNF-α inhibiting effect |
| EVRQHREARPALLTSRLRFIPKPDGL (listed as Homo sapiens) [SEQ ID NO: 44] | showed TNF-α inhibiting effect | showed TNF-α inhibiting effect |
| EVRQHREARPALLTSRLRFIPKPDGLR (listed as Homo sapiens) [SEQ ID NO: 45] | showed TNF-α inhibiting effect | – |
| EVRQHREARPALLTSRLRFIPKPDGLRP (listed as Homo sapiens) [SEQ ID NO: 46] | showed TNF-α inhibiting effect | – |
| FIPK (listed as Homo sapiens) [SEQ ID NO: 102] | showed TNF-α inhibiting effect | showed TNF-α inhibiting effect |
| HREARPALLTSRLRFIPKP (listed as Homo sapiens) [SEQ ID NO: 17] | showed TNF-α inhibiting effect | showed TNF-α inhibiting effect |
| HREARPALLTSRLRFIPKPD (listed as Homo sapiens) [SEQ ID NO: 18] | showed TNF-α inhibiting effect | showed TNF-α inhibiting effect |
